The nature of data set [1]: Pharmacokinetic parameters in rats (blood plasma kinetic). As to conditions: male rats, 0.1 mmol Gd/kg bolus tail vein, mean. It counts as in vivo, male rats (Han-Wistar). On the procedure: Pharmacokinetic parameters of the compound of Example 3 were determined in male rats (Han-Wistar, 220-230 g, n=3). The compound was administered as a sterile aqueous solution (52.5 mmol Gd/L) as a bolus in the tail vein of the animals. The dose was 0.1 mmol Gd/kg. Blood was sampled 1, 3, 5, 10, 15, 30, 60, 90, 120, 240, 360, 480 and 1440 min post injection and the Gd concentration was determined by Inductively Coupled Plasma Mass Spectroscopy (ICP-MS Agilent 7500a, Waldbronn, Germany). The blood level was converted to plasma concentrations by division by 0.625 (plasma fraction of rat blood, assuming strictly extracellular distribution). As a control, 3 animals were treated in the same way with Gadovist®, a low molecular weight contrast agent.
The fit of the obtained data to a three compartment model (Phoenix—WinNonlin) yielded the pharmacokinetic parameters which are shown in Table 3.

A short description of data set [2]: Whole body imaging (dynamic MRI and tissue Gd concentration). The data set is classed as in vivo, male New Zealand white rabbits. The note with it: rabbits, tissues 30 min p.i., FIGS. 8A and 8B. On the procedure: The study was performed with a clinical whole body MRI equipped with body spine coil, abdomen flex coil, neck coil (1.5 T Magnetom Avanto, Siemens Healthcare, Erlangen, Germany). The study was done using male New Zealand white rabbits (weight 2.3-3.0 kg, n=8, Charles River Kisslegg). All animals were initially anesthetized using a body weight-adjusted intramuscular injection of a mixture (1+2) of xylazine hydrochloride (20 mg/mL, Rompun 2%, Bayer Vital GmbH, Leverkusen, Germany) and ketamine hydrochloride (100 mg/mL, Ketavet, Pfizer, Pharmacia GmbH, Berlin, Germany) using 1 mL/kg body weight. The continuous anesthesia of the intubated animals (endotracheal tube, Rueschelit Super Safe Clear, cuff 3.0 mm, Willy Ruesch AG, Kernen, Germany) was achieved by the intravenous injection of 0.9 mg propofol per kilogram per hour (10 mg/mL, Propofol-Lipuro 1%, B. Braun Melsungen AG, Melsungen, Germany). The continuous intravenous injection was performed using a MR infusion system (Continuum MR Infusion System, Medrad Europe B. V., A E Beek, Germany). The tracheal respiration (SV 900C, Maquet, Rastatt, Germany) was performed with 55% oxygen, forty breaths per minute and a breathing volume of 7 mL per kilogram body weight per minute.
Dynamic MRI measurements up to 22 min post injection with subsequent quantitative signal analysis (Siemens Mean Curve software (SYNGO Task Card, Siemens Healthcare, Erlangen, Germany), were performed for three different regions head and neck (brain, tongue, chops muscle, neck muscle), abdomen (spleen, liver, blood) and pelvis (extremity muscle). For the three different slice groups a 3D T1-weighted Vibe sequence was used (TR=4.74 ms, TE=2.38, flip=10°, 1:29 min). The dynamic measurements of the three slice groups (Head/Neck: 1:29 min, Abdomen: 0:49 min, Pelvis: 1:16 min) were done up to 22 min post injection: 1. Head/Neck: baseline, 1.4, 5.2, 8.9, 12.8, 16.5, 20.4 min, 2. Abdomen: baseline, 0.5, 4.3, 8.1, 11.9, 15.7, 19.5 min and 3. Pelvis: baseline, 2.9, 6.7, 10.5, 14.4, 18.1, 22.0 min. At 30 min post injection the animals were sacrificed and the Gd concentrations were measured using Inductively Coupled Plasma Mass Spectroscopy (ICP-MS Agilent 7500a, Waldbronn, Germany) in the following tissue samples: blood, brain, tongue, liver and extremity muscle. A quantitative image evaluation was performed for the 30 min time point p.i. due to the combination of the quantitative ICP-MS Gadolinium concentrations and the MRI region-of-interest analysis.

For data set [3] the following is noted: 37° C., cited from earlier work.
Data set [4] in a line: Gadolinium release after the addition of zinc and phosphate (transmetallation). The note with it: phosphate buffer pH 7.00, 2.5 mmol/L gadolinium complex, 2.5 mmol/L ZnCl2, 37° C., up to 72 h, FIG. 2.
Procedure: The technique is based on measurement of the evolution of the water proton paramagnetic longitudinal relaxation rate in phosphate buffer (pH 7.00, 26 mmol/L, KH2PO4 Merck, Hessen, Germany) containing 2.5 mmol/L gadolinium complex and 2.5 mmol/L ZnCl2 Sigma-Aldrich, Munich, Germany). […] The mixture was vigorously stirred, and 300 μL were taken out for the relaxometric study at 0 min, 60 min, 120 min, 3 h, 4 h, 5 h, 24 h, 48 h and 72 h. The measurements were performed on a MiniSpec mq60 spectrometer (Bruker Analytik, Karlsruhe, Germany) at 60 MHz and 37° C.
Data set [5] is described as follows: Relaxivity measurements at 1.41 T. The data set is classed as physicochemical. The note with it: 1.41 T, 37° C., normalized to Gd; for r1 FBS: fetal bovine serum. On the procedure:
Relaxivity measurements at 1.41 T were performed using a MiniSpec mq60 spectrometer (Bruker Analytik, Karlsruhe, Germany) operating at a resonance frequency of 60 MHz and a temperature of 37° C. The T1 relaxation times were determined using the standard inversion recovery (IR) method with a fixed relaxation delay of at least 5×T1. The variable inversion time (TI) was calculated automatically by the standard software of the MiniSpec mq60 (8 steps). The T2 measurements were done by using a Carr-Purcell-Meiboom-Gill (CPMG) pulse sequence, applying a relaxation delay of at least 5×T1.
Each relaxivity measurement was performed using three different Gd concentrations (3 concentrations between 0.05 and 2 mM). The T1 and T2 relaxation times of the example compounds 1-10 were measured in different media for example in water, fetal bovine serum (FBS, Sigma, F7524) and human plasma.
Human plasma preparation: For each experiment fresh blood was taken from a volunteer using 10 mL citrate-tubes (Sarstedt S-Monovette 02.1067.001, 10 mL, Citrate). The 10 mL citrate-tubes were carefully inverted 10 times to mix blood and anticoagulant and centrifuged for 15 minutes at 1811 g at room temperature (Eppendorf, Centrifuge 5810R).
The relaxivities ri (where i=1, 2) were calculated on the basis of the measured relaxation rates Ri in water and plasma: Ri=Ri(0)+ri[CGd], where Ri(0) represent the relaxation rate of the respective solvent and CGd the concentration of the compound normalized to the Gadolinium. The Gadolinium concentrations of the investigated solutions were verified by Inductively Coupled Plasma Mass Spectroscopy (ICP-MS Agilent 7500a, Waldbronn, Germany).

Data set [6] is described as follows: Relaxivity measurements at 3.0 T. It counts as physicochemical. The note with it: 37° C., normalized to Gd, average ± standard deviation. How it is done: Relaxivity measurements at 3.0 T were performed with a whole body 3.0 T MRI Scanner (Philips Intera, Philips Healthcare, Hamburg, Germany) using a knee-coil (SENSE-Knee-8, Philips Healthcare, Hamburg, Germany). The sample tubes (CryoTubetm Vials, Thermo Scientific 1.8 mL, Roskilde, Denmark) were positioned in 3 rows of 4 and 5 tubes in a plastic holder in a box filled with water. The temperature was adjusted to 37° C. For the MRI sequence, the shortest possible echo-time (TE) with 7.46 milliseconds was used. The inversion times were chosen to optimize the sequence to measure T1 values corresponding to the estimated T1 range of all relaxation times of contrast media containing solutions. The following inversion times (TIs) were applied: 50, 100, 150, 200, 300, 500, 700, 1000, 1400, 2100, 3200, and 4500 milliseconds. The sequence was run with a constant relaxation delay of 3.4 seconds after the registration of the last echo (variable TR in the range from 3450 to 7900 milliseconds). For details of the fit procedure, see Rohrer et. al. (Invest. Radiol. 2005; 40, 11: 715-724). The experimental matrix of the phantom measurement was 320×320.
The relaxivities were evaluated using three different concentrations of each compound (3 concentrations between 0.05 and 2 mM).
The T1 relaxation times of the Example compounds 1-6 were measured in water and human plasma. Human plasma preparation: For each experiment fresh blood was taken from a volunteer using 10 mL citrate-tubes (Sarstedt S-Monovette 02.1067.001, 10 mL, Citrate). The 10 mL citrate-tubes were carefully inverted 10 times to mix blood and anticoagulant and centrifuged for 15 minutes at 1811 g at room temperature (Eppendorf, Centrifuge 5810R).
The relaxivities ri (where i=1, 2) were calculated on the basis of the measured relaxation rates Ri in water and plasma: Ri=Ri(0)+ri[CGd], where Ri(0) represent the relaxation rate of the respective solvent and CGd the concentration of the compound normalized to the Gadolinium (Table 2).

A short description of data set [7]: Chemical stability (autoclaving at 121° C.). The data set is classed as physicochemical. The note with it: 5 mmol Gd/L in 10 mM Tris-HCl buffer, pH 7.4, 121° C. for 20 min.
A further data set is described as follows: Water solubility. It counts as physicochemical. As to conditions: 10 mM Tris-HCl buffer, 20° C. How it is done: The water solubility of the compounds was determined at room temperature (20° C.) in 0.5 mL buffer solution (10 mM Tris-HCl) in the microcentrifuge tubes (Eppendorf, 2.0 mL safe-lock caps). The solid compound was added stepwise to the buffer solution. The suspension was mixed using a shaker (Heidolph Reax 2000) and treated 5 min in an ultrasound bath (Bandelin, Sonorex Super RK255H) The suspension was stored at room temperature (20° C.) over night and final Gadolinium concentration was determined by inductively coupled plasma mass spectrometry (ICP-MS).

Where two headings read alike, the source gives them in different places.

As for `O=C([O-])CN1CCN(CC(=O)[O-])CCN([C@H](CO)[C@H](O)CO)CCN(CC(=O)[O-])CC1.[Gd+3]` (racemic) [Reference compound 1, gadobutrol, reference compound], in data set [1], the “AUC∞ Area under the curve (to infinity)” value is 11500 µmol·min/L; the “MRT Mean residence time” value came to 30.1 min; the “V1 + V2 Volume, compartments V1 + V2” value worked out at 0.25 L/kg; the “V2 Volume, compartment V2” value was found to be 0.12 L/kg. In data set [1], the “Vc (V1) Volume, central compartment V1” value was 0.14 L/kg and the “Vd,ss Volume of distribution at steady state” value is 0.28 L/kg. Moreover, in data set [1] (three compartment model), the “t½ α Half-life, compartment V1” value was determined as 1.6 min; the “t½ β Half-life, compartment V2” value is 20.5 min; the “t½ γ Half-life, compartment V3” value is 232 min. The “slope of the linear regression between tissue gadolinium concentration and MRI signal change” value in data set [2] was 1.0. In addition, the r1 human plasma in data set [3] (reference compounds (marked ^), plasma, 3.0 T, average ± standard deviation) was 5.0 ± 0.3 L/mmol/s. The r1 water in data set [3] (reference compounds (marked ^), 3.0 T, average ± standard deviation) was 3.2 ± 0.3 L/mmol/s. Besides, the “r1 FBS” value in data set [3] (reference compounds, bovine plasma, 1.5 T, from Rohrer et al.) was 5.2 L/mmol/s. In addition, the r1 water in data set [3] (reference compounds, 1.5 T, from Rohrer et al.) was 3.3 L/mmol/s. Moreover, the “stability against transmetallation (relative longitudinal relaxation rate R1p(t)/R1p(0) versus time)” value in data set [4] is “high stability”.

Turning to `CC(C(=O)NCC(=O)NCC(CNC(=O)CNC(=O)C(C)N1CCN(CC(=O)[O-])CCN(CC(=O)[O-])CCN(CC(=O)[O-])CC1)C(=O)NCCN(CCNC(=O)C(CNC(=O)CNC(=O)C(C)N1CCN(CC(=O)[O-])CCN(CC(=O)[O-])CCN(CC(=O)[O-])CC1)CNC(=O)CNC(=O)C(C)N1CCN(CC(=O)[O-])CCN(CC(=O)[O-])CCN(CC(=O)[O-])CC1)C(=O)C(CNC(=O)CNC(=O)C(C)N1CCN(CC(=O)[O-])CCN(CC(=O)[O-])CCN(CC(=O)[O-])CC1)CNC(=O)CNC(=O)C(C)N1CCN(CC(=O)[O-])CCN(CC(=O)[O-])CCN(CC(=O)[O-])CC1)N1CCN(CC(=O)[O-])CCN(CC(=O)[O-])CCN(CC(=O)[O-])CC1.[Gd+3].[Gd+3].[Gd+3].[Gd+3].[Gd+3].[Gd+3]` (centres unmarked) [Example 2], in data set [5], the “r1 FBS” value was 13.4 L/mmol/s, the r1 human plasma was determined as 13.9 L/mmol/s and the r1 water stood at 12.1 L/mmol/s. Further, in data set [6], the r1 human plasma stood at 11.4 ± 0.1 L/mmol/s and the r1 water stood at 9.2 ± 0.3 L/mmol/s. Moreover, the “appearance of the solution after autoclaving” value in data set [7] is “still clear and colorless”. In addition, the Solubility in the data set “Water solubility” is recorded as >1200 mmol Gd/L.

“Hexagadolinium 2,2′,2″,2′″,2″″,2′″″,2″″″,2′″″″,2″″″″,2′″″″″,2″″″″″,2′″″″″″,2″″″″″″, 2′″″″″″″,2″″″″″″″, 2′″″″″″″″,2″″″″″″″″,2′″″″″″″″″-(1,4,7-triazonane-1,4,7-triyltris{carbonyl- 1,4-diazepane-6,1,4-triylbis[(2-oxoethane-2,1-diyl)imino(1-oxopropane-1,2-diyl)-1,4,7,10-tetraazacyclododecane-10,1,4,7-tetrayl]})octadecaacetate [Example 6]”: in data set [5], the “r1 FBS” value turned out to be 14.2 L/mmol/s, the r1 human plasma amounted to 14.6 L/mmol/s and the r1 water was 13.4 L/mmol/s. In data set [6], the r1 human plasma was 12.8 ± 0.3 L/mmol/s and the r1 water worked out at 11.3 ± 0.4 L/mmol/s. Also, the “appearance of the solution after autoclaving” value in data set [7] is “still clear and colorless”. For the same compound, the Solubility in “Water solubility” is on record as >1100 mmol Gd/L.
